Experimental data reported in publication PMC11988034, “Exposure–Response Relationships for Toceranib in Dogs with Solid Tumors: A Pilot Study” (Animals : an Open Access Journal from MDPI, 2025).
Like-named read-outs stand apart in the source and are kept apart here.

Legend:
[1] = parameters: method as in PMID 34512023, PMID 31782166; details: patients with metastatic renal cell tumors; cited from earlier work
[2] = cited from earlier work
[3] = tested on: malignant solid tumors; assay: Assessment of clinical outcome (tumor recurrence) in dogs with solid tumors on postoperative TOC; assay type: in vivo
Experimental: A prospective, randomized clinical trial was conducted on client-owned dogs diagnosed with malignant solid tumors between May 2022 and October 2023 at the Konkuk University Animal Cancer Center. TOC (Palladia®, Zoetis, Parsippany, NJ, USA) was administered orally at a dose range of 2.4–2.9 mg/kg every other day with or without food. Medical data for the dogs were collected, including signalment (age, sex, and neuter status); physical examination, blood pressure, hematology, biochemistry, urinalysis, diagnostic imaging (radiography, ultrasound, and computed tomography), and histopathological findings (surgical margin and mitotic count); TOC dose and duration of TOC treatment; and AEs and clinical outcomes. Dogs were excluded from this study if distant metastases were confirmed at the time of diagnosis or if the TOC treatment duration was less than 1 month, which is insufficient for evaluating its effect. This clinical trial was approved by the Institutional Animal Care and Use Committee of the Konkuk University (approval no. KU 23046).
Rechecks were performed every 1–2 months after the initiation of TOC treatment through physical examination, three-view thoracic radiography, and abdominal ultrasonography.

[4] = parameters: method as in PMID 12855656; details: preclinical trials in rodent models; cited from earlier work
[5] = Plasma toceranib concentration (LC–MS/MS) in dogs with solid tumors treated with TOC; assay type: in vivo; details: for concentration at 48 h / Cmax: plasma; for concentration at 48 h: oral; for Cmax: po
Experimental: A prospective, randomized clinical trial was conducted on client-owned dogs diagnosed with malignant solid tumors between May 2022 and October 2023 at the Konkuk University Animal Cancer Center. TOC ([…], NJ, USA) was administered orally at a dose range of 2.4-2.9 mg/kg every other day with or without food. Medical data for the dogs were collected, including signalment (age, sex, and neuter status); physical examination, blood pressure, hematology, biochemistry, urinalysis, diagnostic imaging (radiography, ultrasound, and computed tomography), and histopathological findings (surgical margin and mitotic count); TOC dose and duration of TOC treatment; and AEs and clinical outcomes. Dogs were excluded from this study if distant metastases were confirmed at the time of diagnosis or if the TOC treatment duration was less than 1 month, which is insufficient for evaluating its effect. This clinical trial was approved by the Institutional Animal Care and Use Committee of the Konkuk University (approval no. KU 23046). Whole blood (1-2 mL) was obtained from the external jugular vein after initiation of postoperative TOC treatment. Blood samples were collected in ethylenediaminetetraacetic acid tubes 6 h (Cmax) and 48 h (Cmin) after administration; these time points were determined based on previous studies. Within 30 min of collection, the samples were centrifuged at 3000× g for 10 min at 4 °C. The plasma was separated, divided into cryovials, and stored at -80 °C until analysis. […] Plasma toceranib was quantitated via high-performance liquid chromatography with tandem mass spectrometry detection (LC-MS/MS). […] After thorough vortexing for 1 min, the mixture was centrifuged at 15,000× g for 10 min at 4 °C, and 2 μL of the supernatant was collected and injected into the LC-MS/MS system. The LC-MS/MS system comprised an ExionLCTM AD system (Sciex, Toronto, ON, Canada) coupled with a Triple QuadTM 5500+ mass system (Sciex). Data were acquired using Analyst 1.4.3. Chromatographic separation was performed using an XBridge C18 column (100 × 2.1 mm, 5 μm; Waters Corporation, Milford, MA, USA) maintained at 40 °C. An isocratic mobile phase comprising 0.1% formic acid in water and 0.1% formic acid in acetonitrile (30:70, v/v) was used at a flow rate 0.50 mL/min, with the total run time not exceeding 3 min. The autosampler was maintained at 15 °C. All measurements were conducted using a mass spectrometer operated in the positive electrospray ionization mode. The multiple reaction monitoring transitions were m/z 397.2 → 283.0 for toceranib and m/z 405.2 → 283.1 for the toceranib-d8 internal standard (IS). The other parameters were as follows: collision gas, curtain gas, ion source gas 1, and ion source gas 2 at 7, 35, 50, and 70 psi, respectively; dwell time, 200 ms; ion spray voltage and temperature, 4000 V and 600 °C, respectively; declustering potential, 80 V for toceranib and the IS; collision energy, 40 V for toceranib and the IS; entrance potential (EP), 12 V for toceranib and 8 V for IS; and collision exit potential, 16 V for toceranib and 18 V for the IS. Standard curves were generated using the peak area ratios of toceranib to the IS and 1/x^2 weighted linear regression. Toceranib concentrations were determined via interpolation across a range of 5-500 ng/mL. Continuous variables are expressed as the mean ± standard deviation. Interpatient variability is expressed as the coefficient of variation, calculated as standard deviation divided by the mean and expressed as a percentage. Normality was assessed using the Shapiro-Wilk test. Continuous variables were compared using Student's t-test or Mann-Whitney U test. Linear mixed models for repeated measures were used to compare plasma TOC concentrations over time. Data were analyzed using SPSS v26.0 (IBM Corp., Armonk, NY, USA). Differences were considered significant at p < 0.05.

[6] = Assessment of adverse events (VCOG-CTCAE v2.0) in dogs treated with TOC; assay type: in vivo
Experimental: AEs were evaluated before TOC treatment (at baseline) and 1, 2, and 4 weeks thereafter, followed by regular check-ups every 1–2 months. At each follow-up, a physical examination, blood pressure measurement, hematological and biochemical tests, and urinalysis were performed. AEs were graded according to the Veterinary Cooperative Oncology Group Common Terminology Criteria for AEs (v2.0). Concomitant medications, including famotidine, omeprazole, silymarin, ursodeoxycholic acid, mirtazapine, and tramadol, were allowed to prevent or treat drug-related AEs. TOC was permanently discontinued upon request of the owner or if unacceptable AEs occurred or disease progression was identified.

[7] = tested on: canine solid tumors; parameters: method as in PMID 12855656, PMID 22236194, PMID 34981886; details: various types of canine solid tumors; cited from earlier work
[8] = cited from earlier work; remark: listed apart in the source
[9] = parameters: method as in PMID 24079884; details: cited from earlier work

## CCN(CC)CCNC(=O)c1c(C)[nH]c(/C=C2\C(=O)Nc3ccc(F)cc32)c1C [sunitinib]
[1]
  interpatient PK variability: 34–60%

## Cc1[nH]c(/C=C2\C(=O)Nc3ccc(F)cc32)c(C)c1C(=O)NCCN1CCCC1 [TOC, Toceranib phosphate]
[2]; 11/16 dogs treated with 2.5 mg/kg TOC every other day
  biological activity (dogs responding): 69%
[2]; 12/20 dogs treated with TOC at the MTD
  biological activity (dogs responding): 60%
[2]; every other day, dogs
  maximum tolerated dose (MTD): 3.25 mg/kg
[3]; three of the nine dogs with Cmax measured
  dogs that developed tumor recurrence: 33.3%
[3]; three out of ten dogs, follow-up period
  dogs that developed local recurrence: 30%
[4]
  therapeutic range (plasma concentration): 50 to 100 ng/mL
[5]; dog, in vivo
  mean interpatient variability in dose-normalized Cmax (coefficient of variation): 29%
[5]; dog, in vivo, 48 h
  mean interpatient variability in dose-normalized Cmin (coefficient of variation): 61%
[5]; dog, dogs with AEs, read-out: mean Cmin
  concentration at 48 h: 13.5 ± 12.1 ng/mL
[5]; dog, dogs without AEs, read-out: mean Cmin
  concentration at 48 h: 14.9 ± 11.3 ng/mL
[5]; dog, four dogs, mean ± SD, read-out: overall mean Cmin
  concentration at 48 h: 14.2 ± 9.57 ng/mL
[5]; dog, dogs with AEs, read-out: mean Cmax at week 1
  Cmax: 89.3 ± 26.3 ng/mL
[5]; dog, dogs with AEs, read-out: mean Cmax on average
  Cmax: 86.2 ± 28.6 ng/mL
[5]; dog, dogs with tumor recurrence, read-out: mean Cmax at week 1
  Cmax: 74.6 ± 49.9 ng/mL
[5]; dog, dogs with tumor recurrence, read-out: mean Cmax on average
  Cmax: 82.7 ± 42.6 ng/mL
[5]; dog, dogs without AEs, read-out: mean Cmax at week 1
  Cmax: 59.9 ± 20.2 ng/mL
[5]; dog, dogs without AEs, read-out: mean Cmax on average
  Cmax: 64.1 ± 8.58 ng/mL
[5]; dog, dogs without tumor recurrence, read-out: mean Cmax at week 1
  Cmax: 77 ± 13.7 ng/mL
[5]; dog, dogs without tumor recurrence, read-out: mean Cmax on average
  Cmax: 73.2 ± 12.3 ng/mL
[5]; dog, individual dogs (case no. in c0), plasma 6 h after oral administration, week 12, read-out: Cmax Week 12
  Cmax: 47.4 ng/mL
[5]; dog, nine dogs, average of weeks, mean ± SD, read-out: overall mean Cmax on average
  Cmax: 76.4 ± 22.5 ng/mL
[5]; dog, nine dogs, mean ± SD, read-out: overall mean Cmax at week 1
  Cmax: 76.2 ± 27.2 ng/mL
[5]; dogs, oral dosing every other day
  time to steady-state plasma concentration: ≤ 1 week
[6]; five of the nine dogs in which Cmax was measured
  dogs that experienced AEs: 55.6%
[6]; five out of ten dogs, follow-up period
  dogs that experienced AEs: 50%
[6]; two of the four dogs in which Cmin was measured
  dogs that experienced AEs: 50%
[7]
  clinical benefit: 50–90%
[8]; dogs with mast cell tumors receiving TOC at the MTD
  Cmax level associated with clinical efficacy: at least 40 ng/mL
[8]; in dogs
  elimination half-life: approximately 17 h
[8]; previous PK study
  interpatient coefficient of variation for Cmax: 35–40%
  interpatient coefficient of variation for Cmin: 30–61%
[9]; TOC administered within 2.4 to 2.9 mg/kg
  resulting Cmax: > 40 ng/mL
[9]
  dogs in which Cmax was reached at 6 or 8 h post-administration: 69%
  plasma concentration at 6 or 8 h as share of actual Cmax in the remaining dogs: > 75%
